Test results as given in patent US11180462B2, “Microbiocidal oxadiazole derivatives” (SYNGENTA PARTICIPATIONS AG, priority 2015, dated 2021).

How the values were obtained:
Phakopsora Pachyrhizi = test: Fungicidal activity against Phakopsora pachyrhizi / soybean / leaf disc preventative (Asian soybean rust); assay type: in vivo; details: foliar, 200 ppm in the applied formulation, soybean leaf disks, compared to untreated control leaf disks, read-out: disease control
How it was run: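 Scored 12 to 14 days post-application as percent control relative to untreated check discs, rust spores were sprayed under the disc one day after compound treatment. Incubation: 20°C, 75% rh, first 24–36 h in darkness, then 12 h daily light; discs kept on water agar.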

[1] = tested on: Puccinia recondita f. Sp. Tritici; test: Fungicidal activity against Puccinia recondita f. sp. tritici / wheat / leaf disc preventative (brown rust); assay type: in vivo; details: foliar, 200 ppm in the applied formulation, wheat leaf segments, preventative, compared to untreated control leaf disks, read-out: disease control
How it was run: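 Percent disease control relative to untreated check segments is scored once disease develops, 7 to 9 days after application. Wheat cv. Kanzler segments receive compound spray (200 ppm in formulation) one day before spore inoculation, then sit at 19° C. and 75% rh under 12 h light/12 h dark.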

[2] = tested on: Glomerella lagenarium (Colletotrichum lagenarium); test: Fungicidal activity against Glomerella lagenarium (Colletotrichum lagenarium) liquid culture / cucumber / preventative (anthracnose); assay type: cell-based; details: Colletotrichum orbiculare; 20 ppm in the applied formulation; liquid culture (PDB), growth inhibition measured photometrically after 3 to 4 days; compared to untreated control; read-out: disease control
How it was run: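 Percent activity against the untreated check was derived from photometric growth measurements made 2 to 7 days after conidia in potato dextrose broth were combined with compound at 20 ppm. Cultures were kept dark at 24 °C and 96% humidity.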

[3] = tested on: Puccinia recondita f. Sp. Tritici; test: Fungicidal activity against Puccinia recondita f. sp. tritici / wheat / leaf disc curative (brown rust); assay type: in vivo; details: foliar, 24 h, 200 ppm in the applied formulation, wheat leaf segments, curative (applied 1 day after inoculation), compared to untreated control leaf disks, read-out: disease control
How it was run: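 Segments of wheat cv. Kanzler were laid on agar and inoculated with a spore suspension of the rust, then held in darkness at 19° C and 75% relative humidity. One day later the water-diluted formulated compound was applied, with incubation continued under a 12 h light/dark cycle.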

CON(Cc1ccc(-c2noc(C(F)(F)F)n2)cc1)C(=O)CCCCC(F)(F)F [Compound 1.53, 6,6,6-trifluoro-N-methoxy-N-[[4-[5-(trifluoromethyl)-1,2,4-oxadiazol-3-yl]phenyl]methyl]-hexanamide]
≥ 80%: pest or weed control at 200 ppm (Phakopsora Pachyrhizi) | pest or weed control at 200 ppm [1] | inhibition of growth at 20 ppm [2] | pest or weed control at 200 ppm [3]

CN(Cc1ccc(-c2noc(C(F)(F)F)n2)cc1)C(=O)C1CCC1 [Compound 1.518, N-methyl-N-[[4-[5-(trifluoromethyl)-1,2,4-oxadiazol-3-yl]phenyl]methyl]-cyclobutane-carboxamide]
≥ 80%: pest or weed control at 200 ppm (Phakopsora Pachyrhizi) | pest or weed control at 200 ppm [1] | inhibition of growth at 20 ppm [2] | pest or weed control at 200 ppm [3]

CCCN(Cc1ccc(-c2noc(C(F)(F)F)n2)cc1)C(C)=O [Compound 1.668, N-propyl-N-[[4-[5-(trifluoromethyl)-1,2,4-oxadiazol-3-yl]phenyl]methyl]-acetamide]
≥ 80%: pest or weed control at 200 ppm (Phakopsora Pachyrhizi) | pest or weed control at 200 ppm [1] | inhibition of growth at 20 ppm [2] | pest or weed control at 200 ppm [3]

CCC(C)C(=O)N(C)Cc1ccc(-c2noc(C(F)(F)F)n2)cc1 (centres unmarked) [Compound 1.525, N.2-dimethyl-N-[[4-[5-(trifluoromethyl)-1,2,4-oxadiazol-3-yl]phenyl]methyl]-butanamide]
≥ 80%: pest or weed control at 200 ppm (Phakopsora Pachyrhizi) | pest or weed control at 200 ppm [1] | inhibition of growth at 20 ppm [2] | pest or weed control at 200 ppm [3]

C#CCOC(=O)NC(C(=O)N(Cc1ccc(-c2noc(C(F)(F)F)n2)cc1)OC)C(C)C (centres unmarked) [Compound 1.77, prop-2-ynyl N-[1-[methoxy-[[4-[5-(trifluoromethyl)-1,2,4-oxadiazol-3-yl]phenyl]methyl]carbamoyl]-2-methyl-propyl]carbamate]
≥ 80%: pest or weed control at 200 ppm (Phakopsora Pachyrhizi) | pest or weed control at 200 ppm [1] | inhibition of growth at 20 ppm [2] | pest or weed control at 200 ppm [3]

CC(C)N(Cc1ccc(-c2noc(C(F)(F)F)n2)cc1)C(=O)C1(C#N)CC1 [Compound 1.684, 1 cyano-N-isopropyl-N-[[4-[5-(trifluoromethyl)-1,2,4-oxadiazol-3-yl]phenyl]methyl]-cyclopropane-carboxamide]
≥ 80%: pest or weed control at 200 ppm (Phakopsora Pachyrhizi) | pest or weed control at 200 ppm [1] | inhibition of growth at 20 ppm [2] | pest or weed control at 200 ppm [3]

CON(Cc1ccc(-c2noc(C(F)(F)F)n2)cc1)C(=O)N(C)CC#N [Compound 3.57, 1-(cyanomethyl)-3-methoxy-1-methyl-3-[[4-[5-(trifluoromethyl)-1,2,4-oxadiazol-3-yl]phenyl]methyl]urea]
≥ 80%: pest or weed control at 200 ppm (Phakopsora Pachyrhizi) | pest or weed control at 200 ppm [1] | inhibition of growth at 20 ppm [2] | pest or weed control at 200 ppm [3]

CCC(COC)C(=O)N(O)Cc1ccc(-c2noc(C(F)(F)F)n2)cc1 (centres unmarked) [Compound 1.768, N-hydroxy-2-(methoxymethyl)-N-[[4-[5-(trifluoromethyl)-1,2,4-oxadiazol-3-yl]phenyl]methyl]-butanamide]
≥ 80%: pest or weed control at 200 ppm (Phakopsora Pachyrhizi) | pest or weed control at 200 ppm [1] | inhibition of growth at 20 ppm [2] | pest or weed control at 200 ppm [3]

CON(Cc1ccc(-c2noc(C(F)(F)F)n2)cc1)C(=O)CC(C)(C)C [Compound 1.41, N-methoxy-3,3-dimethyl-N-[[4-[5-(trifluoromethyl)-1,2,4-oxadiazol-3-yl]phenyl]methyl]-butanamide]
≥ 80%: pest or weed control at 200 ppm (Phakopsora Pachyrhizi) | pest or weed control at 200 ppm [1] | inhibition of growth at 20 ppm [2] | pest or weed control at 200 ppm [3]

CC(C)N(Cc1ccc(-c2noc(C(F)(F)F)n2)cc1)C(=O)C1CCOC1 (centres unmarked) [Compound 1.673, N-isopropyl-N-[[4-[5-(trifluoromethyl)-1,2,4-oxadiazol-3-yl]phenyl]methyl]-tetrahydrofuran-3-carboxamide]
≥ 80%: pest or weed control at 200 ppm (Phakopsora Pachyrhizi) | pest or weed control at 200 ppm [1] | inhibition of growth at 20 ppm [2] | pest or weed control at 200 ppm [3]

CON(Cc1ccc(-c2noc(C(F)(F)F)n2)cc1)C(=O)C1CC1(C)C (centres unmarked) [Compound 1.47, N-methoxy-2,2-dimethyl-N-[[4-[5-(trifluoromethyl)-1,2,4-oxadiazol-3-yl]phenyl]methyl]-cyclopropane-carboxamide]
≥ 80%: pest or weed control at 200 ppm (Phakopsora Pachyrhizi) | pest or weed control at 200 ppm [1] | inhibition of growth at 20 ppm [2] | pest or weed control at 200 ppm [3]

COC(C)C(=O)N(Cc1ccc(-c2noc(C(F)(F)F)n2)cc1)OC (centres unmarked) [Compound 1.81, N,2-dimethoxy-N-[[4-[5-(trifluoromethyl)-1,2,4-oxadiazol-3-yl]phenyl]methyl]-propanamide]
≥ 80%: pest or weed control at 200 ppm (Phakopsora Pachyrhizi) | pest or weed control at 200 ppm [1] | inhibition of growth at 20 ppm [2] | pest or weed control at 200 ppm [3]

CCON(Cc1ccc(-c2noc(C(F)(F)F)n2)cc1)C(=O)COC [Compound 1.567, N-ethoxy-2-methoxy-N-[[4-[5-(trifluoromethyl)-1,2,4-oxadiazol-3-yl]phenyl]methyl]-acetamide]
≥ 80%: pest or weed control at 200 ppm (Phakopsora Pachyrhizi) | pest or weed control at 200 ppm [1] | inhibition of growth at 20 ppm [2] | pest or weed control at 200 ppm [3]

O=C(C1CCOC1)N(Cc1ccc(-c2noc(C(F)(F)F)n2)cc1)C1CC1 (centres unmarked) [Compound 1.103, N-cyclopropyl-N-[[4-[5-(trifluoromethyl)-1,2,4-oxadiazol-3-yl]phenyl]methyl]-tetrahydrofuran-3-carboxamide]
≥ 80%: pest or weed control at 200 ppm (Phakopsora Pachyrhizi) | pest or weed control at 200 ppm [1] | inhibition of growth at 20 ppm [2] | pest or weed control at 200 ppm [3]

CCC(C)N(Cc1ccc(-c2noc(C(F)(F)F)n2)cc1)C(=O)COCCOC (centres unmarked) [Compound 1.384, 2-(2-methoxyethoxy)-N-sec-butyl-N-[[4-[5-(trifluoromethyl)-1,2,4-oxadiazol-3-yl]phenyl]methyl]-acetamide]
≥ 80%: pest or weed control at 200 ppm (Phakopsora Pachyrhizi) | pest or weed control at 200 ppm [1] | inhibition of growth at 20 ppm [2] | pest or weed control at 200 ppm [3]

CON(Cc1ccc(-c2noc(C(F)(F)F)n2)cc1F)C(=O)C1CCCO1 (centres unmarked) [Compound 1.563, N-[[2-fluoro-4-[5-(trifluoromethyl)-1,2,4-oxadiazol-3-yl]phenyl]methyl]-N-methoxy-tetrahydrofuran-2-carboxamide]
≥ 80%: pest or weed control at 200 ppm (Phakopsora Pachyrhizi) | pest or weed control at 200 ppm [1] | inhibition of growth at 20 ppm [2] | pest or weed control at 200 ppm [3]

C#CCN(Cc1ccc(-c2noc(C(F)(F)F)n2)cc1)C(=O)C(C)(C)C [Compound 1.182, 2,2-dimethyl-N-prop-2-ynyl-N-[[4-[5-(trifluoromethyl)-1,2,4-oxadiazol-3-yl]phenyl]methyl]-propanamide]
≥ 80%: pest or weed control at 200 ppm (Phakopsora Pachyrhizi) | pest or weed control at 200 ppm [1] | inhibition of growth at 20 ppm [2] | pest or weed control at 200 ppm [3]

CCCON(Cc1ccc(-c2noc(C(F)(F)F)n2)cc1)C(=O)C1CCCN1C(C)=O (centres unmarked) [Compound 1.314, 1-acetyl-N-propoxy-N-[[4-[5-(trifluoromethyl)-1,2,4-oxadiazol-3-yl]phenyl]methyl]-pyrrolidine-2-carboxamide]
≥ 80%: pest or weed control at 200 ppm (Phakopsora Pachyrhizi) | pest or weed control at 200 ppm [1] | inhibition of growth at 20 ppm [2] | pest or weed control at 200 ppm [3]

CON(Cc1ccc(-c2noc(C(F)(F)F)n2)cc1)C(=O)C1(C)CC1 [Compound 1.43, N-methoxy-1-methyl-N-[[4-[5-(trifluoromethyl)-1,2,4-oxadiazol-3-yl]phenyl]methyl]-cyclopropane-carboxamide]
≥ 80%: pest or weed control at 200 ppm (Phakopsora Pachyrhizi) | pest or weed control at 200 ppm [1] | inhibition of growth at 20 ppm [2] | pest or weed control at 200 ppm [3]

CCC(COC)C(=O)N(Cc1ccc(-c2noc(C(F)(F)F)n2)cc1)C(C)C (centres unmarked) [Compound 1.680, N-isopropyl-2-(methoxymethyl)-N-[[4-[5-(trifluoromethyl)-1,2,4-oxadiazol-3-yl]phenyl]methyl]-butanamide]
≥ 80%: pest or weed control at 200 ppm (Phakopsora Pachyrhizi) | pest or weed control at 200 ppm [1] | inhibition of growth at 20 ppm [2] | pest or weed control at 200 ppm [3]
